Experimental findings from US8865715B2, “Substituted 7-(1,2,3-Triazol-4-yl)-pyrrolo[2,3-b]pyrazines” (Merck Patent GmbH, priority 2010, dated 2014) are described below.

Molecules are shown by their SMILES.

Format in all cases: biochemical
One assay deals with T1, PDK1 (Homo sapiens, UniProt O15530).
T1 construct: His6 (N)
T1 sequence (O15530 51-556 limits assumed): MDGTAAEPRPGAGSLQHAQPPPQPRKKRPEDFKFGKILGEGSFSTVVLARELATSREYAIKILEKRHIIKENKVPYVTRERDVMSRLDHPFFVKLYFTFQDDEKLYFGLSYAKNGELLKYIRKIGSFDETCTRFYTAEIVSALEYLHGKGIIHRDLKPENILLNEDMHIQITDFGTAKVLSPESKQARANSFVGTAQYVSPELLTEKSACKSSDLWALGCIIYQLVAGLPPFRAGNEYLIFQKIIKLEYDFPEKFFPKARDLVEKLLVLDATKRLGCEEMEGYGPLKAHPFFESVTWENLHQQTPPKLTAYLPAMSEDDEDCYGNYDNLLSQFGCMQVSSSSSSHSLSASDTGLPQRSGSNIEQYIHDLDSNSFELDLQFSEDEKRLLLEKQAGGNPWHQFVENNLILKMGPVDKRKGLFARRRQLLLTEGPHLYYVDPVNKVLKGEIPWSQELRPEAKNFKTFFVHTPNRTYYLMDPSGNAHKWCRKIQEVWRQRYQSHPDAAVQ
Put plainly: Test for the inhibition of PDK1 (384-well flashplate, 33P-ATP). On the procedure:
4.0 Test for the Inhibition of PDK1
The experimental batches are carried out in a flashplate system with 384 wells/microtitration plate.
In each case, the PDK1 sample His6-PDK1(1-50) (3.4 nM), the PDK1 substrate biotin-bA-bA-[…] (400 nM), 4 μM ATP (with 0.2 μCi of ^33P-ATP/well) and the test substance in 50 μl of conventional experimental solution per well are incubated at 30° C. for 60 min. The test substances are employed in corresponding concentrations (if desired in a dilution series). The control is carried out without test substance. The reaction is stopped using standard methods and washed. The activity of the kinase is measured via the incorporated radioactivity in top count. In order to determine the non-specific kinase reaction (blank value), the experimental batches are carried out in the presence of 100 nM staurosporine.
The radioactivity (decompositions per minute) of the blank value (no use of test substance in the presence of staurosporine) is subtracted from all other radioactivity values. The controls (kinase activity without test substance) are set equal to 100 percent and all other radioactivity values (after subtracting the blank value) are expressed set in relation thereto (for example in % of the control).
IC50 values (50% inhibition) are determined with the aid of statistics programmes, such as, for example, RS1.

Another assay addresses T2, IKKε (Homo sapiens, UniProt Q14164).
T2 sequence (Q14164 1-716): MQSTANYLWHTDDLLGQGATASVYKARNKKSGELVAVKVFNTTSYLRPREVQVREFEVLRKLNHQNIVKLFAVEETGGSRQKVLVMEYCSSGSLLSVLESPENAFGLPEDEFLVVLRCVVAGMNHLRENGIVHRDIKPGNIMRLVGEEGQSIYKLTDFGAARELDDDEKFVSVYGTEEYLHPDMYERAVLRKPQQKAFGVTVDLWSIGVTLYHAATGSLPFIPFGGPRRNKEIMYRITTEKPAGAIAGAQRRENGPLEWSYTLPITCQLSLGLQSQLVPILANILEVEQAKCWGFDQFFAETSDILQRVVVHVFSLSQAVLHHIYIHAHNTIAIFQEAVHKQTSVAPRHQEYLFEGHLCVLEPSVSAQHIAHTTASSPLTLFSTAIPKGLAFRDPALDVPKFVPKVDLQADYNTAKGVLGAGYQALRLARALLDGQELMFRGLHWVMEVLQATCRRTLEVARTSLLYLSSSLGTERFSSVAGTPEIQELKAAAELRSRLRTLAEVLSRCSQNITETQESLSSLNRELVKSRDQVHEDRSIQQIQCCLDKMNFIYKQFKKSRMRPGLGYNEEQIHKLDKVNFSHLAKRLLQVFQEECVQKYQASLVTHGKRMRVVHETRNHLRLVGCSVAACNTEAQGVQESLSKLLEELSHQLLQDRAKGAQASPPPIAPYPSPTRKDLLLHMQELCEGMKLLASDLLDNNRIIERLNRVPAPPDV
Put plainly: IKKε-kinase test (IKKepsilon), 384-well flashplate assay. On the procedure: IKKε-Kinase Test (IKKepsilon)
The kinase assay is performed as 384-well flashplate assay. 1 nM IKKε, 800 nM biotinylated IκBα(19-42) peptide (biotin-C6-C6-[…]) and 10 μM ATP (with 0.3 μCi of ^33P-ATP/well) are incubated in a total volume of 50 μl (10 mM MOPS, 10 mM magnesium acetate, 0.1 mM EGTA, 1 mM dithiothreitol, 0.02% of Brij35, 0.1% of BSA, 0.1% of BioStab, pH 7.5) with or without test substance at 30° C. for 120 min. The reaction is stopped using […] of 200 mM EDTA solution, filtered off with suction after 30 min at room temperature, and the wells are washed 3 times with 100 μl of 0.9% NaCl solution. The non-specific proportion of the kinase reaction (blank) is determined using 3 μM EMD 1126352 (BX-795). Radioactivity is measured in the Topcount. IC50 values are calculated using RS1.

The target of assay [1] is T3, TANK binding kinase (TBK1) (Homo sapiens, UniProt Q9UHD2).
T3 sequence (Q9UHD2 1-729): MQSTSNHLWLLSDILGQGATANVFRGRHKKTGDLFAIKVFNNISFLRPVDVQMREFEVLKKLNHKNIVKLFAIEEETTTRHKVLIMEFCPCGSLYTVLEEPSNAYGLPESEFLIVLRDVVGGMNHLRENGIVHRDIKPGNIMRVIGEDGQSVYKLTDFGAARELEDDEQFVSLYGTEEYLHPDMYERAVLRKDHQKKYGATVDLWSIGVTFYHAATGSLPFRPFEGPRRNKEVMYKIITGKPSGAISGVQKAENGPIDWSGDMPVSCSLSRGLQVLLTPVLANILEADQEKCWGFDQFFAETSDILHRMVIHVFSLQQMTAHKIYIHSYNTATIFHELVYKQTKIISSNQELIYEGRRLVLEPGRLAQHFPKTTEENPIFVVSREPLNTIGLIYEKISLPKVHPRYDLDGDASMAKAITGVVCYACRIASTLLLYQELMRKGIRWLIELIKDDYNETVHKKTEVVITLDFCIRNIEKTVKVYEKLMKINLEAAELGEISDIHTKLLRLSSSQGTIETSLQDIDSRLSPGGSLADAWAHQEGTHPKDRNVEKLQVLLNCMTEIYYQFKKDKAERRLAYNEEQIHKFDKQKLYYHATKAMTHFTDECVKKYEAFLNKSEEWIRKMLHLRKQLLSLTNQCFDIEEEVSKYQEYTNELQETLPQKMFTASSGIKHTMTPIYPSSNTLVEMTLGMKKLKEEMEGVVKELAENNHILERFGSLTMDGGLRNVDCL
Put plainly: TBK1-kinase test, 384-well flashplate assay. On the procedure: The kinase assay is performed as 384-well flashplate assay. 0.6 nM TANK binding kinase (TBK1), 800 nM biotinylated MELK-derived peptide (biotin-Ah-Ah-[…]) and 10 μM ATP (with 0.25 μCi of ^33P-ATP/well) are incubated in a total volume of 50 μl (10 mM MOPS, 10 mM magnesium acetate, 0.1 mM EGTA, 1 mM DTT, 0.02% of Brij35, 0.1% of BSA, pH 7.5) with or without test substance at 30° C. for 120 min. The reaction is stopped using […] of 200 mM EDTA solution, filtered off with suction after 30 min at room temperature, and the wells are washed 3 times with 100 μl of 0.9% NaCl solution. The non-specific proportion of the kinase reaction (blank) is determined using 100 nM staurosporine. Radioactivity is measured in the Topcount. IC50 values are calculated using RS1.

As usually defined, the IC50 is the concentration that gives 50% inhibition. A lower IC50 goes with greater potency in that assay.

For `c1ccc(Cn2cc(-c3c[nH]c4nccnc34)nn2)cc1` [Compound A1, 7-(1-benzyl-1H-1,2,3-triazol-4-yl)-5H-pyrrolo[2,3-b]pyrazine], the IC50 (against PDK1; against IKKε; in assay [1]) was 1000 to 10000 nM throughout.
As for `Cn1cc(-c2cnc3[nH]cc(-c4cn(Cc5ccccc5)nn4)c3n2)cn1` [Compound A2, 7-(1-benzyl-1H-1,2,3-triazol-4-yl)-2-(1-methyl-1H-pyrazol-4-yl)-5H-pyrrolo[2,3-b]pyrazine], the IC50 (against PDK1; against IKKε; in assay [1]) was 0.5 to 1000 nM throughout.
`Cn1cc(-c2cnc3[nH]cc(-c4cn(Cc5cccc(F)c5)nn4)c3n2)cn1` [Compound A3]: the IC50 (against PDK1; against IKKε; in assay [1]) was 0.5 to 1000 nM in each case.
As for `Cn1cc(-c2cnc3[nH]cc(-c4cn(Cc5ccccc5C#N)nn4)c3n2)cn1` [Compound A4], the IC50 (against PDK1; against IKKε; in assay [1]) was 0.5 to 1000 nM each time.
Regarding `Cn1cc(-c2cnc3[nH]cc(-c4cn(Cc5ccccc5Cl)nn4)c3n2)cn1` [Compound A5], the half-inhibitory concentration (IC50) (against PDK1; at IKKε; in assay [1]) was 0.5 to 1000 nM in each case.
As for `Cn1cc(-c2cnc3[nH]cc(-c4cn(Cc5cccc(F)c5F)nn4)c3n2)cn1` [Compound A7], the IC50 (against PDK1; at IKKε; in assay [1]) was 0.5 to 1000 nM each time.
As to `Cn1cc(-c2cnc3[nH]cc(-c4cn(Cc5ccc(F)cc5)nn4)c3n2)cn1` [Compound A10], the IC50 (against PDK1; against IKKε; in assay [1]) was 0.5 to 1000 nM each time.
`Cn1cc(-c2cnc3[nH]cc(-c4cn(C(CCN5CCCC5)c5ccccc5)nn4)c3n2)cn1` (centres unmarked) [Compound A11, 7-[1-(3-Pyrrolidin-1-yl-1-phenylpropyl)-1H-1,2,3-triazol-4-yl]-2-(1-methyl-1H-pyrazol-4-yl)-5H-pyrrolo[2,3-b]pyrazine]: the IC50 (on PDK1; against IKKε; in assay [1]) was 0.5 to 1000 nM each time.
On to `Cn1cc(-c2cnc3[nH]cc(-c4cn(Cc5ccccc5F)nn4)c3n2)cn1` [Compound A12], for which the IC50 (at PDK1; in assay [1]) was 0.5 to 1000 nM each time.
